Reference: patent US20180369219A1, “USING DABIGATRAN TO TREAT PANCREATITIS” (Mayo Foundation for Medical Education and Research, priority 2017, published 2018)

Tests used:
[1] = test system: human having pancreatitis; assay: Treating a human identified as having pancreatitis (Example 2); assay type: in vivo; conditions: 112 mg dabigatran or 150 mg dabigatran etexilate at least twice a day for one to three weeks
Method: A human identified as having pancreatitis is administered 112 mg of dabigatran or 150 mg of dabigatran etexilate at least twice a day for one to three weeks.

[2] = test system: WT mice; assay: Prevention of caerulein-induced acute pancreatitis in WT mice; assay type: in vivo, mouse; conditions: evaluated 24 h after first caerulein dose, Dabigatran 200 mg/kg×2, Camostat 300 mg/kg×2
Method: (§1) The secretagogue overstimulation model of experimental pancreatitis with caerulein, is a commonly used AP model (Zhan et al., Gastrointestinal Liver Physiology, 311:G343-55 (2016)). This model was accomplished by repeated intraperitoneal (ip) injections of caerulein (100 μg/kg/hour) once per hour (Huang et al., Gastroenterology, 144:202-10 (2013)).
Camostat mesilate (Santa Cruz), Dabigatran etexilate mesylate (a prodrug for Dabigatran, TRC Canada), and Ximelagatran (a prodrug for Melagatran, Sigma-Aldrich) were dissolved in 10% β-Cyclodextrin (Sigma-Aldrich). […]
Pancreas edema, serum amylase, and histology were evaluated as described elsewhere (Gaiser et al., Gut, 60:1379-88 (2011); Huang et al., Gastroenterology, 144:202-10 (2013); and Daniluk et al., J. Clin. Invest., 122:1519-28 (2012)).
The effect of Dabigatran on experimental pancreatitis in WT mice was evaluated. Dabigatran and Camostat were administrated by oral gavage two hours before the initiation of AP by six hourly injections of caerulein (FIG. 1A). Twenty-four hours after the first dose of caerulein, the severity of pancreatitis was evaluated.

[3] = test system: PRSS1R122H mice; assay: Prevention of caerulein-induced pancreatitis in mouse model of human hereditary pancreatitis (PRSS1R122H); assay type: in vivo; conditions: Dabigatran 200 mg/kg×2, Camostat 300 mg/kg×2
Method: as §1
A model of human hereditary pancreatitis (HP) was developed by using a bacterial artificial chromosome (BAC, clone RP11-701D14) harboring the full-length human PRSS1 gene containing an intact PRSS1 promoter, all exons and introns, and the 3′ untranslated region for faithful recapitulation of the gene's expression. An R122H point mutation was introduced by two rounds of genetic targeting using Galk-mediated recombineering (PRSS1^R122H) (Warming et al., Nucleic Acids Research, 33:e36 (2005)). This transgene expressed PRSS1^R122H at ˜50% of the endogenous human PRSS1 protein level as detected by Western blot (WB) and real-time RT-PCR. Taking into account that the PRSS1^R122H mutation was heterozygous, and that mutated PRSS1 constituted 50% of the total PRSS1 in human HP, this model does expressPRSS1^R122H at a physiologically relevant level. In this mouse model, spontaneous AP and CP were not observed. However, these mice developed more severe AP following the induction of AP with caerulein injection. More importantly, all of the PRSS1^R122H mice, but none of the WT mice, developed CP with an observed histopathology similar to that seen in human HP (Singhi et al., Am. J. Surg. Path., 38:346-53 (2014)). Therefore, this model faithfully recapitulates the histological changes observed during human HP (Singhi et al., Am. J. Surg. Path., 38:346-53 (2014)). […]
(§2) Pancreas edema, serum amylase, and histology were evaluated as described elsewhere (Gaiser et al., Gut, 60:1379-88 (2011); Huang et al., Gastroenterology, 144:202-10 (2013); and Daniluk et al., J. Clin. Invest., 122:1519-28 (2012)). […]

[4] = test system: PRSS1R122H mice; assay: Therapeutic administration after AP induction in PRSS1R122H mice, progression to chronic pancreatitis; assay type: in vivo, mouse; conditions: administered four hours after AP induction by caerulein, treated for additional five days, Dabigatran 200 mg/kg Bid, Camostat 300 mg/kg Bid
Method: as §1
A model of human hereditary pancreatitis (HP) was developed by using a bacterial artificial chromosome (BAC, clone RP11-701D14) harboring the full-length human PRSS1 gene containing an intact PRSS1 promoter, all exons and introns, and the 3′ untranslated region for faithful recapitulation of the gene's expression. An R122H point mutation was introduced by two rounds of genetic targeting using Galk-mediated recombineering (PRSS1^R122H) (Warming et al., Nucleic Acids Research, 33:e36 (2005)). This transgene expressed PRSS1^R122H at ˜50% of the endogenous human PRSS1 protein level as detected by Western blot (WB) and real-time RT-PCR. […]
as §2

[5] = test system: mutant trypsinogen mice; assay: Prevention of pancreatitis in mouse model expressing active trypsin (PACE-trypsinogen); assay type: in vivo; conditions: pretreated two hours prior to caerulein and seven hours after final caerulein injection, Dabigatran 200 mg/kg×2, Camostat 300 mg/kg×2, Ximelagatran 40 mg/kg×2
Method: as §1
A PACE-activated trypsinogen model in which the original enteropeptidase cleavage site (DDDDK) was replaced by a PACE cleavage site (RTKR), using site-specific mutagenesis of the wild type rat trypsinogen cDNA, was produced (Ji et al., J. Biol. Chem., 284:17488-98 (2009)). PACE, paired basic amino acid cleaving enzyme (also called furin), is a mammalian propeptide-processing endoprotease that is present in the trans-Golgi network of virtually all cells. To target expression of PACE-trypsinogen specifically to pancreatic acinar cells, conditional LGL (loxP-GFP-stop-loxP)-PACE-trypsinogen transgenic mice were bred with full-length, acinar specific, elastase promoter-regulated Cre transgenic mice. […]
as §2

Compound	severity of the pancreatitis [1]	pancreatic edema (pancreas/body weight ratio) ([2]; oral gavage two hours before six hourly caerulein injections (100 μg/kg×6))	serum amylase levels ([2]; oral gavage two hours before six hourly caerulein injections)	pancreatic edema (pancreas/body weight ratio) ([3]; pretreatment before caerulein (100 μg/kg×6))	pancreatic histology ([3]; pretreatment before caerulein)	serum amylase levels ([3]; pretreatment before caerulein)	progression of AP to CP (pancreas/body weight ratio, histology) [4]	development of severe AP (pancreas edema, serum amylase) [5]
CCCCCCOC(=O)N=C(N)c1ccc(NCc2nc3cc(C(=O)N(CCC(=O)OCC)c4ccccn4)ccc3n2C)cc1 [dabigatran etexilate]	reduction in the severity of the pancreatitis	–	–	–	–	–	–	–
CN(C)C(=O)COC(=O)Cc1ccc(OC(=O)c2ccc(NC(=N)N)cc2)cc1 [Camostat, Camostat mesilate]	–	moderately reduce	no significant effect	only slightly improved	only slightly improved	only slightly improved	no positive effects on preventing the development of CP	no ability to prevent the development of severe AP
